Values of other authors as cited in patent publication US20220241230A1, “DICLOFENAC SACHET COMPOSITION” (Patrin Pharma, Inc., priority 2021, published 2022).

What was measured:
[1] = commercially available sugar coated tablets
[2] = 100 mg and 50 mg tablets, versus placebo
[3] = 50 mg and 100 mg sugar coated tablets

Compound	terminal half-life [1]	incidence of headache recurrence within 48 hours of treatment (50 mg and 100 mg immediate release tablets, versus placebo, statistical significance not reported)	effectiveness against phonophobia two hours after treatment [3]	effectiveness against photophobia eight hours after treatment [3]	effectiveness against photophobia two hours after treatment [3]	relief of migraine pain within two hours of treatment [3]	effectiveness against photophobia eight hours after treatment, 50 mg dose (50 mg sugar coated tablets)	effectiveness against migraine pain within two hours of treatment [2]	effectiveness against phonophobia and photophobia within two hours [2]
O=C(O)Cc1ccccc1Nc1c(Cl)cccc1Cl [diclofenac potassium, Diclofenac potassium]	about 1.9 hours	higher incidence of headache recurrence than patients treated with placebo	only the 100 mg dose was effective	both doses were effective	neither dose was effective	ability of both doses to relieve migraine pain	effective		
O=C(O)Cc1ccccc1Nc1c(Cl)cccc1Cl [diclofenac, [(2,6-dichloro-anilino)-2-phenyl]-2-acetic acid]								both strengths were effective	only the 100 mg strength was effective
